Test results published in US9260436B2 (Sumitomo Chemical Company, Limited, priority 2012, dated 2016).

Each compound was assayed on Haemaphysalis longicornis (assay: Test Example 11: coated screw tube contact test, Haemaphysalis longicornis nymphal ticks). Conditions: 48 h, 2 mg compound in 0.2 mL acetone coated on inner wall of screw tube, after 2 days, read-out: death rate.
Assay type: in vivo
Experimental: 2 mg of each of Compounds of Present Invention 6, 8, 10, 26, 28, 29, 33, 35 and 37 was weighed in a screw tube (Maruemu No. 5; 27×55 mm), and 0.2 mL of acetone was added thereto and sealed with a cap to dissolve the compound. The screw tube was rotated and inverted to uniformity coat the drug solution onto the whole inner wall of the tube. After removing the cap, the solution was air-dried for about 2 hours, then non-blood-sucking nymphal ticks, Haemaphysalis longicornis (5 ticks/group) were released, and the tube was sealed with the cap. After 2 days, the number of dead ticks was examined, and the death rate was calculated according to the following equation: Death rate (%)=100×(Number of dead ticks/Number of tested ticks).
Work on `CCCNc1nc(-c2ccccc2SCC)nc2cc(C(F)(F)F)ccc12` [Compound of Present Invention 8, 2-(2-ethylsulfanylphenyl)-4-propylamino-7-trifluoromethylquinazoline] yielded a pest or weed control at 2 mg/tube of 100%.
For `CCCNc1nc(-c2ccccc2S(=O)(=O)CC)nc2cc(C(F)(F)F)ccc12` [Compound of Present Invention 10, 2-(2-ethylsulfonylphenyl)-4-propylamino-7-trifluoromethylquinazoline], the pest or weed control at 2 mg/tube was 100%.
`CCSc1ccccc1-c1ccc2nc(C(F)(F)F)cn2c1` [Compound of Present Invention 26, 6-(2-ethylsulfanylphenyl)-2-trifluoromethylimidazo[1,2-a]pyridine] gave a pest or weed control at 2 mg/tube of 100%.
`CCSc1ccccc1-c1ccc2nc(C(F)(F)F)cn2c1C` [Compound of Present Invention 28, 6-(2-ethylsulfanylphenyl)-5-methyl-2-trifluoromethylimidazo [1,2-a]pyridine] gave a pest or weed control at 2 mg/tube of 100%.
`CCSc1ccccc1-c1ccc2nc(C(F)(F)C(F)(F)F)cn2c1C` [Compound of Present Invention 29, 6-(2-ethylsulfanylphenyl)-5-methyl-2-pentafluoroethylimidazo[1,2-a]pyridine] was tested, and the pest or weed control at 2 mg/tube was 100%.
`CCSc1ccccc1-c1ccc2nc(C(F)(F)F)cn2n1` [Compound of Present Invention 33, 6-(2-ethylsulfanylphenyl)-2-trifluoromethylimidazo[1,2-b]pyridine] gave a pest or weed control at 2 mg/tube of 100%.
With `CCSc1ccccc1-c1cnc2nc(C(F)(F)F)cn2c1` [Compound of Present Invention 35, 6-(2-ethylsulfanylphenyl)-2-trifluoromethylimidazo[1,2-a]pyrimidine] the pest or weed control at 2 mg/tube was 100%.
With `CCSc1ccccc1-c1ccn2cc(C(F)(F)F)nc2c1` [Compound of Present Invention 37, 7-(2-ethylsulfanylphenyl)-2-trifluoromethylimidazo[1,2-a]pyridine] the pest or weed control at 2 mg/tube was 100%.

The compounds below were run on Aphis gossypii (assay: Test Example 2: foot drench of cucumber seedling, then inoculation with Aphis gossypii). Conditions: 500 ppm, 5 ml drenched at foot of cucumber seedling, 7 days then inoculation, further 6 days.
Assay type: in vivo
Experimental: On the other hand, a cucumber seedling (the second true leaf stage) planted in a plastic cup was drenched at its foot with 5 ml of the test drug solution, and kept in a greenhouse at 25° C. for 7 days. On the cucumber leaf surface was inoculated 30 Aphis gossypii (whole stage), and further kept in the greenhouse for 6 days, then the number of surviving Aphis gossypii parasitized on the leaves of the cucumber was examined, and the controlling value was calculated according to the following equation: Controlling value (%)={1−(Cb×Tai)/(Cai×Tb)}×100 wherein the symbols represent as follows: Cb: the number of insects in a non-treated section before treatment, Cai: the number of insects in a non-treated section on observation, Tb: the number of insects in a treated section before treatment, Tai: the number of insects in a treated section on observation, wherein the non-treated section refers to a section where the test drug solution prepared by diluting the formulation not containing the compound of the present invention as in Formulation Example 5 with the same amount of water as in the treated section was sprayed.
Work on `CCS(=O)(=O)c1ccccc1-c1cnc2nc(C(F)(F)F)cn2c1` yielded a controlling value of no less than 90%.
